Where “and” joins values, the source holds several entries; their conditions need not be identical. Equal values may be shown once.
Key:
[1] = molecular target: T1, 5-LOX (Homo sapiens, UniProt P09917); test: 5-LOX fluorescent assay (in vitro lipoxygenase inhibition); format: biochemical; conditions: recombinant 5-LOX cell lysate, 20 μM AA, DHR123 fluorescence; several values in a cell = repeat determinations; read-out: IC50 (μM) values for in vitro lipoxygenase inhibition, 5-LOX
T1 sequence (P09917 1-674): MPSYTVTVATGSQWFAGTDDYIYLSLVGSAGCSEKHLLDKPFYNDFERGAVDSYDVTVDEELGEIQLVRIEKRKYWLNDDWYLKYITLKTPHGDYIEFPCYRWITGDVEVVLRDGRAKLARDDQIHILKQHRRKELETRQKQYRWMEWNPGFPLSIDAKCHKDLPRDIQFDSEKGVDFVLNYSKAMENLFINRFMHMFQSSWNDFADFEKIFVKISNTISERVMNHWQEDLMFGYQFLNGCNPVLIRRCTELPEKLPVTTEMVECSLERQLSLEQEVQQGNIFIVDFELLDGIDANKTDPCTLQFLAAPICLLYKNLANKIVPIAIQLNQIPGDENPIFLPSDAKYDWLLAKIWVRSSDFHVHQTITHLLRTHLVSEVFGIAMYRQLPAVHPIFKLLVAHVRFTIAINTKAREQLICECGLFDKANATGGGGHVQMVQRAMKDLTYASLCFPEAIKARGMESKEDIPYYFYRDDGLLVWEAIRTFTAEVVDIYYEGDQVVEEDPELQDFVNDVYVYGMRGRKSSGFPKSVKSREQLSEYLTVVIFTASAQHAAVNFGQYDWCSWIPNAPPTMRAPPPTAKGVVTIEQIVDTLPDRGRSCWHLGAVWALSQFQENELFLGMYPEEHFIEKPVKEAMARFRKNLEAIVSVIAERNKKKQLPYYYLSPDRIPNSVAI
Description: 5-LOX FI assay Fluorescent Assay
The enzyme assay (100 μL) contained 50 mM Tris, pH 7.5, 0.1 mM EDTA, 0.3 mM CaCl2, 20 μM AA, 100 μM ATP, 1 μM DHR123, and recombinant 5-LOX cell lysate (0.5 μL/100 μL). Inhibitors (dissolved in DMSO) were plated at 1 μL into 96-well assay microplates followed by a 40 μL addition of a solution containing 5-LOX enzyme. Enzyme was pre-incubated with compounds for 15 mins. The assay was initiated by the addition of a 40 μL substrate solution containing AA and ATP, and 20 μL addition of a solution containing DHR123. […] Percent inhibition was calculated for each compound dose for IC50 curve fitting using 4 Parameter Logistic Model or Sigmoidal Dose-Response Model.

[2] = molecular target: T2, 12-LOX (Homo sapiens, UniProt P18054); test: 12-LOX fluorescent assay (in vitro lipoxygenase inhibition); format: biochemical; conditions: 100 nM recombinant 12-LOX, 20 μM AA, DHR123 fluorescence; several values in a cell = repeat determinations; read-out: IC50 (μM) values for in vitro lipoxygenase inhibition, 12-LOX
T2 sequence (P18054 1-663): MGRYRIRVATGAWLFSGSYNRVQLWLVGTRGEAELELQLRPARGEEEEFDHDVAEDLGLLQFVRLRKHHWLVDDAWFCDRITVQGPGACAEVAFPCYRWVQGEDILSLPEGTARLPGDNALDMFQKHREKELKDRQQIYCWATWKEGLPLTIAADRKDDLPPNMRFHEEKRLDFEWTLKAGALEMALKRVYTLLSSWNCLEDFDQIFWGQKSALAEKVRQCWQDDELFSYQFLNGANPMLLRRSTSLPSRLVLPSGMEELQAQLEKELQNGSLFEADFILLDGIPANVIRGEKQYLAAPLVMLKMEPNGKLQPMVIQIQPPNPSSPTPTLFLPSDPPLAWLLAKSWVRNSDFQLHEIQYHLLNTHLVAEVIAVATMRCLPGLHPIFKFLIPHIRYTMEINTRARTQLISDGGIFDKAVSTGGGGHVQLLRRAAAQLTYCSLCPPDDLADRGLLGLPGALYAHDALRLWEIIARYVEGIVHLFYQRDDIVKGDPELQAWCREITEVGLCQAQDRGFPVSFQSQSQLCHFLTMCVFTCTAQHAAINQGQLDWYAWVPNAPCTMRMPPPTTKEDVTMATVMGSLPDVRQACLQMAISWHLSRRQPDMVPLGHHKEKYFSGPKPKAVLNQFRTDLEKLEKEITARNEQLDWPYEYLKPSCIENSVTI
Description: 12-LOX/15-LOX Fluorescent Assay
The enzyme assay (100 ul) contained 50 mM Tris, pH 7.5, 0.05% Tween-20, 20 μM AA/LA, 1 μM DHR123, and 100 nM recombinant 12-LOX enzyme/50 nM recombinant 15-LOX enzyme. Inhibitors (dissolved in DMSO) were plated at 1 μL into 96-well assay microplates followed by a 40 μL addition of a solution containing 12-LOX/15-LOX enzyme. Enzyme was pre-incubated with compounds for 15 mins. The assay was initiated by the addition of a 40 μL substrate solution containing AA/LA, and 20μL addition of a solution containing DHR123. […] Percent inhibition was calculated for each compound dose for IC50 curve fitting using 4 Parameter Logistic Model or Sigmoidal Dose-Response Model.

| SMILES | IC50 [1] | IC50 [2] |
| --- | --- | --- |
| CN(C)CCOc1c(NCc2ccccc2)cccc1Nc1ncccc1Cl [SS20308-0071-01, N^1-benzyl-N^3-(3-chloropyridin-2-yl)-2-(2-(dimethylamino)ethoxy)benzene-1,3-diamine] | 5.73 µM | 4.9 µM |
| Cc1cc(Nc2ccc(Cl)c(F)c2)ccc1NCC1(Cn2cncn2)COC1 [SS20308-0308-01, N^1-((3-((1H-1,2,4-triazol-1-yl)methyl)oxetan-3-yl)methyl)-N^4-(4-chloro-3-fluorophenyl)-2-methylbenzene-1,4-diamine] | 0.04 µM and 0.03 µM and 0.05 µM and 0.09 µM | 20 nM (2×) and 50 nM and 60 nM |
| FC(F)(F)C(Nc1ccc(NCCn2cncn2)cn1)c1ccccc1 (centres unmarked) [SS20308-0245-01, N^5-(2-(1H-1,2,4-triazol-1-yl)ethyl)-N^2-(2,2,2-trifluoro-1-phenylethyl)pyridine-2,5-diamine] | 1.19 µM | 0.51 µM |
| FC1(F)CCC(Nc2ccc(NCC3(Cn4cncn4)COC3)cc2)CC1 [SS20308-0263-01, N^1-((3-((1H-1,2,4-triazol-1-yl)methyl)oxetan-3-yl)methyl)-N^4-(4,4-difluorocyclohexyl) benzene-1,4-diamine] | 0.22 µM and 0.12 µM | 0.06 µM and 0.03 µM |
| c1ccc(CNc2cnc(-c3ccccc3)c(NCCn3cncn3)c2)cc1 [SS20308-0219-01, N^3-(2-(1H-1,2,4-triazol-1-yl)ethyl)-N^5-benzyl-2-phenylpyridine-3,5-diamine] | 4.78 µM | 2.68 µM |
| Fc1c(Nc2ccccc2)ccc2c1CCN2CCn1cncn1 [SS20308-0264-01, 1-(2-(1H-1,2,4-triazol-1-yl)ethyl)-4-fluoro-N-phenylindolin-5-amine] | 0.27 µM | 0.05 µM |
| FC(F)(F)c1cc(NC2(c3ccccc3)COC2)ccc1NCCN1CCOCC1 [SS20308-0317-01, N^1-(2-morpholinoethyl)-N^4-(3-phenyloxetan-3-yl)-2-(trifluoromethyl)benzene-1,4-diamine] | 0.57 µM | 0.32 µM |
| CCOC(=O)c1ccc(Nc2ccccc2OCCn2cncn2)cc1 [SS20308-0033-01, ethyl 4-(2-(2-(1H-1,2,4-triazol-1-yl)ethoxy)phenylamino)benzoate] | 50.3 µM | 23.9 µM |
| c1ccc(CNc2ccc(NCCn3cncn3)c(-c3cccs3)n2)cc1 [SS20308-0218-01, N^5-(2-(1H-1,2,4-triazol-1-yl)ethyl)-N^2-benzyl-6-(thiophen-2-yl)pyridine-2,5-diamine] | 0.02 µM | 0.01 µM |
| c1ccc(Nc2ccc(-c3cccc4c3NCC4)c(NCCn3cncn3)c2)cc1 [SS20308-0166-01, N^3-(2-(1H-1,2,4-triazol-1-yl)ethyl)-4-(indolin-7-yl)-N^1-phenylbenzene-1,3-diamine] | 0.14 µM | 0.07 µM |
| CC1(C)CC(Nc2ccc(NCCn3cncn3)cc2)c2ccccc21 (centres unmarked) [SS20308-0275-01, N^1-(2-(1H-1,2,4-triazol-1-yl)ethyl)-N^4-(3,3-dimethyl-2,3-dihydro-1H-inden-1-yl)benzene-1,4-diamine] | 0.26 µM and 0.1 µM | 0.05 µM and 0.04 µM |
| CN(C)CCCc1ccc(Nc2ccccc2Cl)c(Nc2ccccc2Cl)c1 [SS20308-0198-01, N^1,N^2-bis(2-chlorophenyl)-4-(3-(dimethylamino)propyl)benzene-1,2-diamine] | 0.25 µM | 0.32 µM |
| Cc1cc(Nc2ccc(F)cc2Cl)ccc1NCC1(CN2CCOCC2)COC1 [SS20308-0309-01, N^4-(2-chloro-4-fluorophenyl)-2-methyl-N^1-((3-(morpholinomethyl)oxetan-3-yl)methyl) benzene-1,4-diamine] | 0.09 µM and 0.12 µM | 0.04 µM and 0.08 µM |
| c1ccc(CNc2ccc(-c3ccccc3)c(NCCn3cncn3)n2)cc1 [SS20308-0221-01, N^2-(2-(1H-1,2,4-triazol-1-yl)ethyl)-N^6-benzyl-3-phenylpyridine-2,6-diamine] | 0.66 µM | 0.11 µM |

More lines, in order of falling IC50 [1], values ahead:

| IC50 [1] | IC50 [2] | SMILES |
| --- | --- | --- |
| 25.7 µM | 20.8 µM | O=C(Nc1ccc(-c2ccccc2)c(NCCn2cncn2)c1)c1ccccc1 [SS20308-0135-01, N-(2-((2-(1H-1,2,4-triazol-1-yl)ethyl)amino)-[1,1′-biphenyl]-4-yl)benzamide] |
| 3.77 µM | 4.02 µM | O=C(Nc1ccc(NCCn2cncn2)c(-c2ccccc2)c1)c1ccccc1 [SS20308-0146-01, N-(6-((2-(1H-1,2,4-triazol-1-yl)ethyl)amino)-[1,1′-biphenyl]-3-yl)benzamide] |
| 1.32 µM | 0.62 µM | COc1ccc(CNc2cccc(Nc3ccccc3)c2OCCN(C)C)cc1 [SS20308-0052-01, 2-(2-(dimethylamino)ethoxy)-N^1-(4-methoxybenzyl)-N^3-phenylbenzene-1,3-diamine] |
| 0.94 µM | 0.33 µM | OCc1ccccc1-c1ccc(Nc2ccccc2)cc1NCCn1cncn1 [SS20308-0143-01, (2′-(2-(1H-1,2,4-triazol-1-yl)ethylamino)-4′-(phenylamino)biphenyl-2-yl)methanol] |
| 0.83 µM | 0.59 µM | Cc1noc(C)c1-c1ccc(Nc2ccccc2)cc1NCCn1cncn1 [SS20308-0192-01, N^3-(2-(1H-1,2,4-triazol-1-yl)ethyl)-4-(3,5-dimethylisoxazol-4-yl)-N^1-phenylbenzene-1,3-diamine] |
| 0.51 µM | 0.08 µM | Fc1ccc(CNc2ccc(NCCn3cncn3)cn2)cc1 [SS20308-0246-01, N^5-(2-(1H-1,2,4-triazol-1-yl)ethyl)-N^2-(4-fluorobenzyl)pyridine-2,5-diamine] |
| 0.28 µM | 0.14 µM | c1ccc(Nc2ccc(-c3cccs3)c(NCCn3cncn3)c2)cc1 [SS20308-0193-01, N^3-(2-(1H-1,2,4-triazol-1-yl)ethyl)-N^1-phenyl-4-(thiophen-2-yl)benzene-1,3-diamine] |
| 0.24 µM | 0.25 µM | CN(C)CCNc1cc(Nc2ccccc2)ccc1-c1ccccc1 [SS20308-0130-01, N2-(2-(dimethylamino)ethyl)-N4-phenyl-[1,1′-biphenyl]-2,4-diamine] |
| 0.19 µM | 0.05 µM | Fc1ccc(Nc2ccc3c(c2)N(CCn2cncn2)CC3)cc1 [SS20308-0201-01, 1-(2-(1H-1,2,4-triazol-1-yl)ethyl)-N-(4-fluorophenyl)indolin-6-amine] |
| 0.16 µM | 0.16 µM | Fc1ccc(Nc2ccc(-c3ccc(Cl)cc3)c(NCCn3cncn3)c2)cc1 [SS20308-0181-01, N^2-(2-(1H-1,2,4-triazol-1-yl)ethyl)-4′-chloro-N^4-(4-fluorophenyl)biphenyl-2,4-diamine] |
| 0.07 µM | 0.04 µM | Cc1cc(Nc2ccc(Cl)c(F)c2)ccc1NCC1(Cn2cccn2)COC1 [SS20308-0327-01, N1-((3-((1H-pyrazol-1-yl)methyl)oxetan-3-yl)methyl)-N4-(4-chloro-3-fluorophenyl)-2-methylbenzene-1,4-diamine] |

Reference: US20230117592A1 (SRI International, priority 2019, published 2023)
